Data on 91 molecules can be found in the SangsterLogP compilation.

Experiment in one data set: not given
Settings: not given
One may read the logP as a log measure of how a compound divides between an organic and an aqueous phase. A low value points to a more hydrophilic compound. Molecule `c1ccc2ccccc2c1` yielded a logP of 3.43.
On the same count and under the same terms, next, `Cc1cc(C)cc(O)c1`: 2.54; `Nc1ccc(F)c(Cl)c1`: 1.95; `CCOP(=O)(OCC)O/C(=C/Cl)c1ccc(Cl)cc1Cl`: 3.84.

Experiment in the next data set: not given
Settings: not given
The source holds these as a separate data set.
The molecule `O=C(O)c1ccccc1C(=O)O` showed a logP of 0.87.
For `O=C(O)COc1ccc(Cl)cc1Cl`, the logP stood at 2.71.
Consider `O=C(O)c1cccc(Oc2ccccc2)c1`, for which the logP was 3.6.
The molecule `CC[C@H]1CCC[C@H](O[C@H]2CC[C@H](N(C)C)[C@@H](C)O2)[C@@H](C)C(=O)C2=C[C@@H]3[C@@H](C=C(C)[C@@H]4C[C@@H](O[C@@H]5O[C@@H](C)[C@H](OC)[C@@H](OC)[C@H]5OC)C[C@@H]34)[C@@H]2CC(=O)O1` displayed a logP of 4.92.

Experiment in another data set: not given
Settings: not given
The source holds these as a separate data set.
On to `c1ccc2c(c1)cc1ccc3cccc4ccc2c1c34`, for which the logP turned out to be 6.57.
Same read-out and setting: next, `c1cc2cccc3c4cccc5cccc(c(c1)c23)c54`: 6.53; `c1ccc2c(c1)ccc1c3ccccc3ccc21`: 6.01; `O=C(O)c1ccccc1O`: 1.75.

Experiment in a further data set: not given
Settings: not given
The source holds these as a separate data set.
As for `COP(=S)(OC)Oc1c(Cl)cc(C)cc1Cl`, the logP came to 4.36.
On the same count and under the same terms, the same measure for `O=C(Nc1ccccc1)N(Cc1ccc(Cl)cc1)C1CCCC1`: 4.7; for `O=C1OCc2c(Cl)c(Cl)c(Cl)c(Cl)c21`: 3.22; for `CCOP(=S)(OCC)Oc1cc(-c2ccccc2)on1`: 4.58.

Experiment in the next data set: not given
Settings: not given
The source holds these as a separate data set.
`COc1cccc(O)c1` came in with a logP of 1.52.
In the case of `Cc1cccc(C)c1O`, the logP was 2.38.
Same read-out and setting: the same measure for `Nc1ccccc1[N+](=O)[O-]`: 1.62.
On the same count and under the same terms, next, `COc1cccc(N)c1`: 1.11.

Experiment in another data set: not given
Settings: not given
This is another data set of the same source.
As for `CNc1ccccc1`, the logP was 1.69.
Still for that read-out and setting: the same measure for `OCc1ccncc1`: -0.04; for `OCc1ccc(F)cc1`: 1.36; for `CC(=O)Nc1ccccc1Cl`: 1.35.

Experiment in another data set: not given
Settings: not given
This is another data set of the same source.
`Cc1cccc2sc3nncn3c12` displayed a logP of 2.07.

Experiment in a further data set: not given
Settings: not given
This is another data set of the same source.
In turn, `O=C(O)CCCCCCCCCCCCCCCOC(=O)Oc1ccccc1` had a logP of 4.67.
On the same count and under the same terms, the same measure for `O=C(O)COC(=O)Oc1ccccc1`: 1.72.

Another data set in a line: method code SF-C, from DOI: 10.1038/194178b0.
Settings: not given
Consider `N#Cc1cccc(OCC(=O)O)c1`, for which the log partition coefficient (logP) was 1.2.
Still for that read-out and setting: the same measure for `CC(=O)c1cccc(OCC(=O)O)c1`: 1.34; for `O=C(O)COc1cccc(C(F)(F)F)c1`: 2.52; for `Cc1cccc(OCC(=O)O)c1`: 1.88.

Another data set can be described thus: method code SF-AS, from DOI: 10.1021/je700381u. The settings on record: pH 0.0.
For orientation: logD means the decadic logarithm of the distribution of all forms, ionised or not, between an organic phase and buffer at a given pH. A low value points to a more hydrophilic compound. The molecule `O=C(O)c1cc(F)ccc1Br` gave a logD of 2.21.
On the same count and under the same terms, next, `O=C(O)c1ccc(F)c(Br)c1`: 3.56; `O=C(O)c1cc(F)ccc1Cl`: 2.39; `O=C(O)c1cccc(F)c1Cl`: 1.74.

A further data set in a line: method code SF-AS, from DOI: 10.1021/jf60177a051.
Settings: not given
Consider `CC1=C(C(=O)Nc2ccccc2)S(=O)CCO1` (stereo unspecified), for which the logP worked out at 0.64.
Same read-out and setting: the same measure for `CC1=C(C(=O)O)SCCO1`: 0.04; for `CC1=C(C(=O)Nc2ccccc2)SCCO1`: 1.73.
For `CC1=C(C(=O)Nc2ccccc2-c2ccccc2)SCCO1`, the logP is 2.54.

Another data set in a line: method code SF-AS, from DOI: 10.1002/jps.2600710122.
Settings: not given
`CCC(=O)Nc1n[nH]c(NC(=O)CC)n1`: the logP was -0.07.
Still for that read-out and setting: the same measure for `O=C(Nc1n[nH]c(NC(=O)C(F)(F)F)n1)C(F)(F)F`: 0.62; for `CCCC(=O)Nc1n[nH]c(NC(=O)CCC)n1`: 0.79; for `O=C(Nc1n[nH]c(NC(=O)c2ccc([N+](=O)[O-])cc2)n1)c1ccc([N+](=O)[O-])cc1`: 0.55.

The nature of a further data set: method code SF-AS, from DOI: 10.1093/chemse/13.4.619. The settings on record: pH 7.2.
For `c1ccc(Cc2ccncc2)cc1`, the logD was 2.62.
The same measure, in the same setting: next, `O=[N+]([O-])c1ccc(Cc2ccncc2)cc1`: 2.73; `O=C(c1ccccc1)c1ccncc1`: 1.9; `CC(=O)c1ccncc1`: 0.4.

A short description of the next data set: method code SF-AS, from DOI: 10.1016/0378-5173(90)90042-3.
Settings: not given
As for `CC(C)CCOC(=O)c1cc(=O)[nH]c(=O)[nH]1`, the logP came to 1.48.
For `CCCCCOC(=O)c1cc(=O)[nH]c(=O)[nH]1`, the logP was determined as 1.62.
The same measure, in the same setting: next, `CCOC(=O)c1cc(=O)[nH]c(=O)[nH]1`: 0.68; `COC(=O)c1cc(=O)[nH]c(=O)[nH]1`: 0.63.

A further data set in a line: method code SF-HPLC, from DOI: 10.1016/0378-5173(87)90096-2. The note with it: pH 8.0.
As for `NC(=O)Cc1ccncc1`, the logD was -0.59.
Still for that read-out and setting: next, `NC(=O)Cc1cccnc1`: -0.59.
On the same count and under the same terms, next, `NC(=O)Cc1ccccn1`: -0.64.
Same read-out and setting: the same measure for `NC(=O)CCCc1ccccn1`: 0.06.

A further data set is described as follows: method code SF-AS, from DOI: 10.1080/00021369.1974.10861343.
Settings: not given
As to `CCOC(=O)C=COc1ccccc1`, the logP was found to be 3.18.
Same read-out and setting: next, `CCCOC(=O)C=COc1ccccc1`: 3.72.

Still in this data set, the particulars now being: pH 3.0.
The molecule `O=C(O)/C=C/Oc1ccccc1Cl` had a logD of 2.69.
The same measure, in the same setting: the same measure for `O=C(O)/C=C/Oc1ccccc1`: 2.27.

The nature of another data set: method code SF-AS, from DOI: 10.1021/bi00730a008, PMID: 4688860.
Settings: not given
`Cc1ccc(NC=O)cc1` showed a log partition coefficient (logP) of 1.61.
`COc1cccc(NC=O)c1` yielded a logP of 1.25.
On the same count and under the same terms, the same measure for `O=CNc1ccc([N+](=O)[O-])cc1`: 1.43.
Still for that read-out and setting: the same measure for `COc1ccc(NC=O)cc1`: 1.03.

A further data set in a line: method code SF-AS, from DOI: 10.1021/jm00234a001, PMID: 1003419.
Settings: not given
Regarding `CC(=O)Nc1c(I)c(C(=O)N[C@H]2C(O)O[C@H](CO)[C@@H](O)[C@@H]2O)c(I)c(N(C)C(C)=O)c1I` (stereo partly specified), the logP was -1.89.
On the same count and under the same terms, next, `Oc1c(I)cc(I)c(O)c1I`: 1.68; `OC[C@H]1O[C@@H](Oc2ccc(I)c(O[C@@H]3O[C@H](CO)[C@@H](O)[C@H](O)[C@H]3O)c2I)[C@H](O)[C@@H](O)[C@@H]1O`: -1.31; `CNC(=O)c1c(I)c(NC(C)=O)c(I)c(O[C@@H]2O[C@H](CO)[C@@H](O)[C@H](O)[C@H]2O)c1I`: -1.49.

The nature of another data set: method code SF-AS, from DOI: 10.1021/jm00291a017, PMID: 5140011.
Settings: not given
`S=C1CCCCCN1`: the logP came to 0.75.
On the same count and under the same terms, next, `S=C1CCCCN1`: 0.13; `S=C1CCCCCCCN1`: 1.44.
On the same count and under the same terms, next, `S=C1CCCCCCN1`: 1.

The nature of a further data set: method code SF-HPLC, from DOI: 10.1002/jps.2600831027, PMID: 7884677. The note with it: pH 2.0.
Molecule `O=C(O)Cc1ccc(C(=O)O)cc1` returned a logD of 1.24.
Still for that read-out and setting: the same measure for `O=C(O)c1ccc(CO)cc1`: 0.92; for `O=C(O)c1ccc(CCl)cc1`: 2.12.
Still for that read-out and setting: next, `COCc1ccc(C(=O)O)cc1`: 1.76.

Another data set in a line: method code SF, from DOI: 10.1016/s0968-0896(00)00025-0, PMID: 10882003.
Settings: not given
Molecule `CCOC(=O)c1cc(C#N)c(=O)[nH]c1C(F)(F)F` gave a logP of 2.08.
The same measure, in the same setting: the same measure for `O=c1cccc[nH]1`: -0.56; for `Cc1cccc(=O)[nH]1`: -0.04.

The same data set, now with this note: pH 7.4.
`O=c1cccc(Cl)[nH]1` had a logD of 0.78.

A short description of the next data set: method code SF-HPLC, from DOI: 10.1007/s00216-006-0868-5, PMID: 17082876.
Settings: not given
`O=C(Nc1ccccc1)C(=O)Nc1ccccc1` had a logP of 2.
The same measure, in the same setting: the same measure for `C=Cc1ccccc1C=C`: 3.49; for `Cc1ccc(S(=O)(=O)Cl)cc1`: 3.25; for `O=C1C(Cl)=C(Cl)C(=O)C(Cl)=C1Cl`: 2.19.

A short description of the next data set: method code SF-AS, from DOI: 10.1111/j.1476-5381.1975.tb07619.x, PMID: 1182339. The note with it: pH 10.0.
`N=C(N)NC(=O)Nc1ccc(Cl)c(Cl)c1`: the logD was 2.39.
On the same count and under the same terms, next, `COc1ccc(NC(=O)NC(=N)N)cc1`: 0.56; `N=C(N)NC(=O)Nc1cccc([N+](=O)[O-])c1`: 1.28; `COc1cc(NC(=O)NC(=N)N)ccc1C#N`: 1.28.

The nature of another data set: from Pratesi, P.; Villa, L.; Ferri, V.; DeMicheli, C.; Grana, E.; Grieco, C.; Silipo, C.; Vittoria, A. (1979). On the additive-constitutive properties of substituent hydrophobic parameters in a set of ….
Settings: not given
`CNS(=O)(=O)c1ccccc1`: the logP came to 0.92.
The same measure, in the same setting: next, `O=S(=O)(O)c1ccc2ccccc2c1`: 1.07; `N#CCCOc1ccccc1`: 1.61; `Oc1ccc(C2CCCCC2)cc1`: 4.22.
